Data set [1] can be described thus: Risdiplam solubility data. The format is physicochemical.
Data set [2] is described as follows: Storage stability of crystalline Form H by IR spectrum. The format is physicochemical. As to the method: In yet another aspect, the crystalline Form H of Risdiplam is characterized by the IR spectrum at 834 cm^−1, 880 cm^−1, 926 cm^−1, 1210 cm^−1, 1227 cm^−1, 1674 cm^−1, 2824 cm^−1, 3283 cm^−1; as illustrated in FIGS. 2A and 2B. The IR spectrum of Risdiplam Form H was conducted after 6 months of storage.
In yet another embodiment, the crystalline Form H of Risdiplam is characterized by the IR spectrum at 834 cm^−1, 880 cm^−1, 926 cm^−1, 1210 cm^−1, 1227 cm^−1, 1674 cm^−1, 2824 cm^−1, 3283 cm^−1 as illustrated in FIGS. 2A and 2B. The IR spectrum of Risdiplam Form H illustrated in FIG. 2B was conducted after 6 months of storage.

Converted amounts (≈) assume the structure as drawn. Read-outs that look alike come from different tables or passages of the source. Bounds are passed on as bounds.

For `Cc1cn2nc(-c3cc(=O)n4cc(N5CCNC6(CC6)C5)ccc4n3)cc(C)c2n1` [011/DS-C/V/118/032, 7-(4,7-Diazaspiro[2,5]octan-7-yl)-2-(2,8-dimethylimidazo[1,2-b]pyridazin-6-yl)-pyrido[1,2-a]pyrimidin-4-one], the solubility in data set [1] (ethanol, organic solvent or mixture, solvent: ethanol, read-out: Solubility in ethanol) turned out to be 1300 µg/mL (≈ 3240 µM); in data set [1] (water, solvent: water, read-out: Solubility in water) it was 3 µg/mL (≈ 7.47 µM).

As to `Cc1cn2nc(-c3cc(=O)n4cc(N5CCNC6(CC6)C5)ccc4n3)cc(C)c2n1` [STD], in data set [1] (solvent: ethanol), the Solubility in ethanol is below 1000 µg/mL. In data set [1] (solvent: water), this compound had a Solubility in water below 100 µg/mL.

For the compound `Cc1cn2nc(-c3cc(=O)n4cc(N5CCNC6(CC6)C5)ccc4n3)cc(C)c2n1` [crystalline Form H of Risdiplam, 7-(4,7-diazaspiro[2.5]octan-7-yl)-2-(2,8-dimethylimidazo[1,2-b]pyridazin-6-yl)pyrido-4H-[1,2-a]pyrimidin-4-one], the Solubility in ethanol in data set [1] (solvent: ethanol, listed as 011/DS-C/IV/118/048) is 1400 µg/mL (≈ 3490 µM). This compound also had a Solubility in water in data set [1] (solvent: water, listed as 011/DS-C/IV/118/048) of 6 µg/mL (≈ 14.9 µM). The “change in the IR spectrum after storage (stability)” value in data set [2] (after 6 months of storage, IR spectrum, FIG. 2A and 2B) is given as “No substantial change in the IR spectrum was observed”. For the same compound, the stability period result in data set [2] (illustrated by IR spectrum in FIG. 2) is recorded as “stable up to a period of 6 months”.

The record behind these values is patent US20260308179A1, “NOVEL CRYSTALLINE FORM OF RISDIPLAM AND PROCESS FOR PREPARATION THEREOF” (HARMAN FINOCHEM LIMITED, priority 2023, published 2026).
